# Experimental data as given in patent US20140024527A1, “HERBICIDAL PYRAZINONES” (E I DU DE NEMOURS AND COMPANY, priority 2011, published 2014).
# Assays:
# Assay in all cases: Test A preemergence
# Type in all cases: in vivo
# Conditions in all cases: 0 to 100 scale, 0 no effect, 100 complete control, approx. 10 days
# [1] = system: barnyardgrass (Echinochloa crus-galli)
# Text: (§1) Seeds of barnyardgrass (Echinochloa crus-galli), large crabgrass (Digitaria sanguinalis), giant foxtail (Setaria faberii), morningglory (Ipomoea spp.), pigweed (Amaranthus retroflexus), velvetleaf (Abutilon theophrasti), wheat (Triticum aestivum) and corn (Zea mays) were planted into a blend of loam soil and sand and treated preemergence with a directed soil spray using test chemicals formulated in a non-phytotoxic solvent mixture which included a surfactant. At the same time these species were also treated with postemergence applications of test compounds formulated in the same manner. Plants ranged in height from 2 to 10 cm and were in the one- to two-leaf stage for the postemergence treatments. Treated plants and untreated controls were maintained in a greenhouse for approximately 10 days, after which time all treated plants were compared to untreated controls and visually evaluated for injury. Plant response ratings, summarized in Table A, are based on a 0 to 100 scale where 0 is no effect and 100 is complete control.
# [2] = system: morningglory (Ipomoea spp.)
# Text: as §1
# [3] = system: pigweed (Amaranthus retroflexus)
# Text: as §1
# [4] = system: giant foxtail (Setaria faberii)
# Text: as §1
# [5] = system: wheat (Triticum aestivum)
# Text: as §1
# [6] = system: velvetleaf (Abutilon theophrasti)
# Text: as §1
# [7] = system: large crabgrass (Digitaria sanguinalis)
# Text: as §1
# corn (Zea mays) = system: corn (Zea mays)
# Text: as §1
compound,measurement,setting,value
"COCCn1c(-c2cccc(F)c2)c(Cl)nc(C(=O)C2=C(O)CCCC2=O)c1=O [Compound 4, 5-chloro-6-(3-fluorophenyl)-3-[(2-hydroxy-6-oxo-1-cyclohexen-1-yl)carbonyl]-1-(2-methoxyethyl)-2(1H)pyrazinone]","Plant response rating, Barnyardgrass",[1]; 125 g ai/ha,0
same,"Plant response rating, Barnyardgrass",[1]; 500 g ai/ha,70
same,"Plant response rating, Morningglory",[2]; 125 g ai/ha,10
same,"Plant response rating, Morningglory",[2]; 500 g ai/ha,70
same,"Plant response rating, Pigweed",[3]; 125 g ai/ha,60
same,"Plant response rating, Pigweed",[3]; 500 g ai/ha,100
same,"Plant response rating, Foxtail, Giant",[4]; 125 g ai/ha,0
same,"Plant response rating, Foxtail, Giant",[4]; 500 g ai/ha,30
same,"Plant response rating, Wheat",[5]; 125 g ai/ha,0
same,"Plant response rating, Wheat",[5]; 500 g ai/ha,0
same,"Plant response rating, Velvetleaf",[6]; 125 g ai/ha,40
same,"Plant response rating, Velvetleaf",[6]; 500 g ai/ha,90
same,"Plant response rating, Crabgrass, Large",[7]; 125 g ai/ha,80
same,"Plant response rating, Crabgrass, Large",[7]; 500 g ai/ha,100
same,"Plant response rating, Corn",corn (Zea mays); 125 g ai/ha,0
same,"Plant response rating, Corn",corn (Zea mays); 500 g ai/ha,0
"COCCn1c(-c2cc(F)cc(F)c2)c(Cl)nc(C(=O)C2=C(O)CCCC2=O)c1=O [Compound 6, 5-chloro-6-(3,5-difluorophenyl)-3-[(2-hydroxy-6-oxo-1-cyclohexen-1-yl)carbonyl]-1-(2-methoxyethyl)-2(1H)-pyrazinone]","Plant response rating, Barnyardgrass",[1]; 125 g ai/ha,20
same,"Plant response rating, Barnyardgrass",[1]; 500 g ai/ha,90
same,"Plant response rating, Morningglory",[2]; 125 g ai/ha,40
same,"Plant response rating, Morningglory",[2]; 500 g ai/ha,80
same,"Plant response rating, Pigweed",[3]; 125 g ai/ha,50
same,"Plant response rating, Pigweed",[3]; 500 g ai/ha,90
same,"Plant response rating, Foxtail, Giant",[4]; 125 g ai/ha,20
same,"Plant response rating, Foxtail, Giant",[4]; 500 g ai/ha,70
same,"Plant response rating, Wheat",[5]; 125 g ai/ha,0
same,"Plant response rating, Wheat",[5]; 500 g ai/ha,20
same,"Plant response rating, Velvetleaf",[6]; 125 g ai/ha,50
same,"Plant response rating, Velvetleaf",[6]; 500 g ai/ha,100
same,"Plant response rating, Crabgrass, Large",[7]; 125 g ai/ha,90
same,"Plant response rating, Crabgrass, Large",[7]; 500 g ai/ha,100
same,"Plant response rating, Corn",corn (Zea mays); 125 g ai/ha,0
same,"Plant response rating, Corn",corn (Zea mays); 500 g ai/ha,20
